Measurements: PMC6740044 (ACS Omega, 2019)
Bridge positions count the residues as written; N and C are the ends. Peptide text beside a SMILES is read from it.

Key:
[1] = target: Herceptin (human IgG1) (human); experiment: SPR
Herceptin (human IgG1) = Herceptin (human IgG1) (Homo sapiens, UniProt P01857); experiment: Isothermal titration calorimetry; conditions: ITC, 25 °C, single-site binding model, measured three times
[2] = target: Herceptin (human IgG1) (human); experiment: ITC

Herceptin (human IgG1), sequence (P01857 104-328): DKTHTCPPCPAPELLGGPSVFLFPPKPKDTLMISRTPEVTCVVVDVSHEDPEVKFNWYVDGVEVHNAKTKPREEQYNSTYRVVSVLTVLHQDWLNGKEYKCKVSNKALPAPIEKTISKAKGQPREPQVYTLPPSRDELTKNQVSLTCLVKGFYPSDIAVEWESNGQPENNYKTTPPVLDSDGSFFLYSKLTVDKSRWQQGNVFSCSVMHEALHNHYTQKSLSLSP

**Q.** 15-Lys8Phe (peptide) was tested. Which Kd [1] did it give?
**A.** Its Kd is 40 nM.

**Q.** Which ΔG (Herceptin (human IgG1)) does the source give for `CC(=O)N[C@@H](CC(=O)O)C(=O)N[C@H]1CSSC[C@@H](C(=O)N[C@H](C(=O)N[C@@H](Cc2ccccc2)C(=O)N[C@@H](Cc2c[nH]cn2)C(N)=O)[C@@H](C)O)NC(=O)[C@H](Cc2c[nH]c3ccccc23)NC(=O)[C@H](C(C)C)NC(=O)[C@H](CC(C)C)NC(=O)[C@H](CCC(=O)O)NC(=O)CNC(=O)[C@H](CCCCN)NC(=O)[C@H](Cc2c[nH]cn2)NC(=O)[C@H](Cc2ccc(O)cc2)NC(=O)[C@H](C)NC1=O` [15-IgBP] (Ac-DCAYHKGELVWCTFH-NH2; disulfide 2-12) here?
**A.** The ΔG was “–9.1 ± 0.0 kcal/mol”.

**Q.** And the ΔH (Herceptin (human IgG1))?
**A.** The ΔH was “–13 ± 0 kcal/mol”.

**Q.** What about the “–TΔS” value (Herceptin (human IgG1)) of the same molecule?
**A.** Its value is 3.5 ± 0.1 kcal/mol.

**Q.** With 15-Lys8Tle (peptide) as the molecule, how does the Kd [2] read?
**A.** Its Kd is 200 nM.
